# Measured values taken from a melting point compilation (Tetko et al.; mined from patent text by program, amines drawn as free bases though some values may be those of a salt).
row,melting point [°C],SMILES
1,99 to 100,C=CC(=O)C1C(=O)N(c2ccc(OC)cc2)C1c1ccccc1Cl (configuration not stated)
2,117 to 119,"CC(C)C(NS(=O)(=O)c1ccc(Cl)cc1)c1ccc(CCCC(=O)O)cc1 (single isomer, unassigned; (+))"
3,90 to 91,CCCCCCSc1nn2c(=O)cc(-c3ccccc3)nc2s1
4,253,COc1ccc(-c2ccc(C(=O)O)cc2)cc1F
5,277 to 279,COC(=O)c1nc2c(c(-c3ccccc3)nn2-c2ccccc2)c(N)c1C(=O)OC
6,169 to 171,Nc1nc(N)c(CCCCc2ccc(C(=O)N[C@@H](CCC(=O)O)C(=O)O)cc2)c(O)n1
7,158 to 160,COc1cccc(-c2cccc(Oc3nc(OC)cc(OC)n3)c2C(=O)O)n1
8,116 to 117,COc1ccc(SCc2ccccc2)c(Cl)c1Cl
9,220,CCc1ccnc(C(=O)c2[nH]c3ccc(Cl)cc3c2CC(=O)O)c1Cl
10,154,COc1ccc(S(=O)(=O)N2C(=O)C(c3ccccc3OC)(N3C[C@H](OCC(=O)NC(C)(CO)CO)C[C@H]3C(=O)N(C)C)c3cc(Cl)ccc32)c(OC)c1 (some centres not stated)
11,212 to 213,Cc1sc2c(I)c3ccccc3c(-c3ccc(OS(C)(=O)=O)cc3)c2c1C
12,118 to 119,CC(C)Cn1cc(F)c(NCc2ccccc2F)nc1=O
13,144 to 145,N#Cc1ccc(OCc2ccc3c(c2)OCO3)cc1OC(C(=O)O)c1ccccc1Cl (racemic)
14,110 to 112,CCCc1nc2c(C)ccnc2n1Cc1ccc(-c2ccncc2-c2nnn[nH]2)cc1
15,172 to 175,Cc1c(CO)nc2c(OCc3ccccc3)cccn12
16,91.9 to 93.4,CCOC(=O)C(C)(C)Oc1ccc(CCCC(=O)NN(Cc2cccc(OC)c2)C(N)=O)cc1
17,190 to 193,Cc1cc(NC(=O)c2c(Cl)cccc2Cl)c2nccc(Cl)c2c1C
18,> 250,O=C(Nc1cccc2c1ncc1c(=O)n3ccnc3sc12)c1c(Cl)cccc1Cl
19,194 to 195,C[C@@H](NC(=O)c1cnc(-c2ccc(Cl)cc2)s1)[C@](O)(Cn1cncn1)c1ccc(F)cc1F
20,> 230,CSc1nn2c(N)cc(C)nc2c1S(=O)(=O)c1ccc2ccccc2c1

# More lines, now with the values behind:
row,SMILES,melting point [°C]
1,CCOC(=O)c1c(C)nc2c(cnn2CCOC)c1N,82 to 85
2,C#CCSc1cc(C(=O)O)cc(S(N)(=O)=O)c1Oc1ccccc1,197 to 198
3,COc1cc(C(=O)Oc2ccccc2C(C)=O)cc([N+](=O)[O-])c1OC,108 to 109
4,CN1CC(=O)N(c2cccnc2)C1=S,149 to 151
5,Fc1c2c(nc3cc(Cl)ccc13)CCCC2,68 to 70
6,Cc1cc(Cl)ccc1-n1c(CF)nc2ccc(N)cc2c1=O,191 to 193
7,CON(c1ccc([N+](=O)[O-])cc1[N+](=O)[O-])S(=O)(=O)c1cccc(C)c1,148 to 150
8,COc1cc2c3c([nH]c2c(Cl)c1Cl)C(=O)NCC3,263 to 264
9,COc1cc2c(cc1OC)-c1c(C=O)c(C#N)cn1CC2,220 to 221
10,Cc1cn(C2CC(ON)C(CO[Si](C)(C)C(C)(C)C)O2)c(=O)[nH]c1=O (configuration not stated),171
11,COc1ccc2[nH]c3c(C)nc4c(c3c2c1)C(=O)CC(C)(C)C4,241 to 243
12,O=C1c2ccccc2CN1C1CCN(c2ccc(C(O)c3ccccc3)cc2)CC1 (configuration not stated),211 to 214
13,CC(CC(Sc1cc(C(C)(C)C)c(O)c(C(C)(C)C)c1)Sc1cc(C(C)(C)C)c(O)c(C(C)(C)C)c1)Sc1cc(C(C)(C)C)c(O)c(C(C)(C)C)c1 (configuration not stated),125 to 126
14,CC1(C)Cc2c(C(=O)N3CCCC3)sc(Sc3ccccc3)c2-c2oncc21,49 to 52
15,CC(C)(C)CNc1cc(NCC(C)(C)C)nc(N2CCNCC2)n1,132 to 136
16,C=C(C)CC1(OC=C(C)C)CC=C(C)C(NC=O)=C1C (configuration not stated),109
17,COc1cnn(-c2ccc(C)cc2)n1,65 to 67
